Laboratory results from US7776558B2, “Human G protein-coupled receptor and modulators thereof for the treatment of cell death-related disorders” (Arena Pharmaceuticals, Inc., priority 2003, dated 2010).
Entries after “also recorded” stand apart in the source; their conditions may differ. Where no end group is shown, it is not given here.

What was measured:
FPRL2 [1] = molecular target: T1, FPRL2 (Homo sapiens, UniProt P25089); experiment: Whole cell adenylate cyclase (cAMP) assay, stably transfected HEK293 cells; assay type: cell-based; parameters: expressed in transfected cells; settings: in the presence of 5 μM forskolin, FIG. 6
T1 sequence (P25089 1-353): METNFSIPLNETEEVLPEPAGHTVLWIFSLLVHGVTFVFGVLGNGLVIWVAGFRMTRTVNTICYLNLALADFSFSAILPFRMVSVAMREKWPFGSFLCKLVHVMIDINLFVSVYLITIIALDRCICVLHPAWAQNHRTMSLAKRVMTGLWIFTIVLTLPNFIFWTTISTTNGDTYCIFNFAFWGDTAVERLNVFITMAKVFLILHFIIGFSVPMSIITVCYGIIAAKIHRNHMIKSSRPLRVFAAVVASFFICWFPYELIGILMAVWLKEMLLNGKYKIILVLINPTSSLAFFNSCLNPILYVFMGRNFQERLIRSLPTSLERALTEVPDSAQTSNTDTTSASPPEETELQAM
Text: A Flash Plate™ Adenylyl Cyclase kit (New England Nuclear; Cat. No. SMP004A) designed for cell-based assays can be modified for use with crude plasma membranes. The Flash Plate wells can contain a scintillant coating which also contains a specific antibody recognizing cAMP. The cAMP generated in the wells can be quantitated by a direct competition for binding of radioactive cAMP tracer to the cAMP antibody. The following serves as a brief protocol for the measurement of changes in cAMP levels in whole cells that express the receptors.
Transfected cells are harvested approximately twenty four hours after transient transfection. Media is carefully aspirated off and discarded. 10 ml of PBS is gently added to each dish of cells followed by careful aspiration. 1 ml of Sigma cell dissociation buffer and 3 ml of PBS are added to each plate. Cells are pipetted off the plate and the cell suspension is collected into a 50 ml conical centrifuge tube. Cells are then centrifuged at room temperature at 1,100 rpm for 5 min. The cell pellet is carefully re-suspended into an appropriate volume of PBS (about 3 ml/plate). The cells are then counted using a hemocytometer and additional PBS is added to give the appropriate number of cells (with a final volume of about 50 μl/well).
cAMP standards and Detection Buffer (comprising 1 μCi of tracer [^125I cAMP (50 μl] to 11 ml Detection Buffer) is prepared and maintained in accordance with the manufacturer's instructions. Assay Buffer is prepared fresh for screening and contains 50 μl of Stimulation Buffer, 3 ul of test compound (12 μM final assay concentration) and 50 μl cells, Assay Buffer is stored on ice until utilized. The assay is initiated by addition of 50 μl of cAMP standards to appropriate wells followed by addition of 50 ul of PBSA to wells H-11 and H12. 50 μl of Stimulation Buffer is added to all wells. DMSO (or selected candidate compounds) is added to appropriate wells using a pin tool capable of dispensing 3 μl of compound solution, with a final assay concentration of 12 μM test compound and 100 μl total assay volume. The cells are then added to the wells and incubated for 60 min at room temperature. 100 μl of Detection Mix containing tracer cAMP is then added to the wells. Plates are then incubated additional 2 hours followed by counting in a Wallac MicroBeta scintillation counter. Values of cAMP/well are then extrapolated from a standard cAMP curve which is contained within each assay plate.
In FIG. 6, agonist activity was determined through adenylate cyclase activity. […] Samples were then assessed for the level of intracellular cAMP as described in Example 4, supra.

FPRL2 [2] = molecular target: T1, FPRL2; experiment: IP3 assay, HEK293 cells transiently transfected with FPRL2 and Gα16; assay type: cell-based; parameters: expressed in transfected cells; host or cells: HEK293 cells, transient, lipofectamine; settings: FIG. 8
Experimental: On day 1, cells comprising the receptors (endogenous and/or non-endogenous) can be plated onto 24 well plates, usually 1×10^5 cells/well (although his umber can be optimized. On day 2 cells can be transfected by firstly mixing 0.25 μg DNA in 50 μl serum free DMEM/well and 2 μl lipofectamine in 50 μl serum free DMEM/well. The solutions are gently mixed and incubated for 15-30 min at room temperature. Cells are washed with 0.5 ml PBS and 400 μl of serum free media is mixed with the transfection media and added to the cells. The cells are then incubated for 3-4 […] at 37° C./5% CO2 and then the transfection media is removed and replaced with 1 ml/well of regular growth media. On day 3 the cells are labeled with ^3H-myo-inositol. Briefly, the media is removed and the cells are washed with 0.5 ml PBS. Then 0.5 ml inositol-free/serum free media (GIBCO BRL) is added/well with 0.25 μCi of ^3H-myo-inositol/well and the cells are incubated for 16-18 hrs o/n at 37° C./5% CO2. On Day 4 the cells are washed with 0.5 ml PBS and 0.45 ml of assay medium is added containing inositol-free/serum free media 10 μM pargyline 10 mM lithium chloride or 0.4 ml of assay medium and 50 μl of 10× ketanserin (ket) to final concentration of 10 μM. The cells are then incubated for 30 min at 37° C. The cells are then washed with 0.5 ml PBS and 200 μl of fresh/ice cold stop solution (1M KOH; 18 mM Na-borate; 3.8 mM EDTA) is added/well. The solution is kept on ice for 5-10 min or until cells were lysed and then neutralized by 200 μl of fresh/ice cold neutralization sol. (7.5% HCL). The lysate is then transferred into 1.5 ml eppendorf tubes and 1 ml of chloroform/methanol (1:2) is added/tube. The solution is vortexed for 15 sec and the upper phase is applied to a Biorad AG1-X8™ anion exchange resin (100-200 mesh). […]
Briefly, HEK293 cells were transiently transfected with 6 μg FPRL2 plasmid DNA and 6 μg Gα16 plasmid DNA per 10^7 cells per 15 cm culture dish using lipofectamine (Invitrogen). […] The level of intracellular IP3 was determined as described in Example 4, supra.

`CC(C)c1ccc2c(c1)CCC1C(C)(C(N)=O)CCCC21C` (stereo not shown) [Compound 1, 7-Isopropyl-1,4a-dimethyl-1,2,3,4,4a,9,10,10a-octahydro-phenanthrene-1-carboxylic acid amide] was tested, and the “Agonist activity at FPRL2, intracellular cAMP” value (“Agonist activity at FPRL2” below) (FPRL2 [1]) was “selectively an agonist of FPRL2” and the “Level of intracellular IP3 (FPRL2 coupling to Gα16)” value (“Level of intracellular IP3” below) (FPRL2 [2]) was “dose-dependent elevation of the level of intracellular IP3”.
`CC[C@H](C)[C@H](NC(=O)[C@H](CCC(=O)O)NC(=O)[C@H](CO)NC(=O)[C@@H](NC(=O)[C@H](CC(C)C)NC(=O)[C@H](CC(C)C)NC(=O)[C@H](CC(C)C)NC(=O)[C@H](CC(C)C)NC(=O)[C@H](CS)NC(=O)[C@H](CO)NC(=O)[C@H](Cc1ccccc1)NC(=O)CNC(=O)[C@H](CCCNC(=N)N)NC(=O)[C@@H]1CCCN1C(=O)[C@H](C)NC(=O)[C@@H](N)CCSC)[C@@H](C)O)C(=O)N[C@@H](CC(=O)O)C(=O)N[C@@H](CC(C)C)C(=O)N1CCC[C@H]1C(=O)N[C@H](C(=O)N[C@@H](CCCCN)C(=O)N[C@@H](CCCNC(=N)N)C(=O)N[C@@H](CCCNC(=N)N)C(=O)N[C@@H](C)C(=O)O)C(C)C` [Humanin] was tested, and the “Agonist activity at FPRL2” value (FPRL2 [1]) was “agonists of both FPRL1 and FPRL2”, the “Agonist activity at FPRL2” value (FPRL2 [1]; listed as Human) was “agonists of both FPRL2 and FPRL1” and the “Level of intracellular IP3” value (FPRL2 [2]) was “dose-dependent elevation of the level of intracellular IP3”.
In the case of “MAPRGFSCLLLLTGEIDLPVKRRA [[Gly14]-Humanin]”, the “Agonist activity at FPRL2” value (FPRL2 [1]) is reported as “agonists of both FPRL1 and FPRL2; also recorded: agonists of both FPRL2 and FPRL1” and the “Level of intracellular IP3” value (FPRL2 [2]) is reported as “dose-dependent elevation of the level of intracellular IP3”.
